Source: patent US20260297080A1, “BICYCLIC COMPOUNDS AS CDK INHIBITORS” (BeOne Medicines I GmbH, priority 2022, published 2026)

Key:
[1] = biological target: CDK1/Cyclin B1 (Homo sapiens, UniProt P06493); experiment: CDK1/Cyclin B1 Biochemical Assay (TR-FRET), 1 mM ATP; settings: 0.15 μM Rb (Ser780)-biotin substrate, pH7.0, 60 min preincubation, 90 min reaction, room temperature
Procedure: (§1) CDK2/Cyclin E1 and CDK1/Cyclin B1 Biochemical Assays
(§2) Compounds disclosed herein were tested for inhibition of CDK2/Cyclin E1 or CDK1/Cyclin B1 kinase in an assay based on the time-resolved fluorescence-resonance energy transfer (TR-FRET) methodology. The assay was carried out in 384-well low volume black plates in a reaction mixture containing CDK2/Cyclin E1 or CDK1/Cyclin B1, 1 mM ATP for CDK2/Cyclin E1 and CDK1/Cyclin B1, 0.15 μM Rb (Ser780)-biotin substrate and 0-10 μM compound in buffer containing 50 mM HEPES pH7.0, 0.02% NaN3, 0.01% BSA, 0.1 mM Orthovanadate, 50 mM MgCl2, 1 mM DTT and 0.005% Tween-20. The kinase was incubated with compound for 60 minutes at room temperature and the reaction was initiated by the addition of ATP and Rb (Ser780)-biotin substrate. After reaction at room temperature for 90 minutes, an equal volume of stop/detection solution was added according to the manufacture's instruction (Cisbio Bioassays). The stop/detection solution contained Streptavidin-XL665 and Anti-pRb (Ser780) mAb-Eu Cryptate in Detection buffer (Cisbio Bioassays). Plates were incubated at room temperature for 60 minutes, and the TR-FRET signals (ex337 nm, em665 nm/620 nm) were recorded on a PHERAstar FSX plate reader (BMG Labtech). The inhibition percentage of CDK2/Cyclin E1 or CDK1/Cyclin B1 kinase activity in presence of increasing concentrations of compounds was calculated based on the ratio of fluorescence at 665 nm to that at 620 nm. The IC50 for each compound was derived from fitting the data to the four-parameter logistic equation by Dotmatics.

[2] = biological target: CDK2/Cyclin E1 (Homo sapiens, UniProt P24941); experiment: CDK2/Cyclin E1 Biochemical Assay (TR-FRET), 1 mM ATP; settings: 0.15 μM Rb (Ser780)-biotin substrate, pH7.0, 60 min preincubation, 90 min reaction, room temperature
Procedure: as §1, §2

CDK1/Cyclin B1, sequence (P06493 whole entry): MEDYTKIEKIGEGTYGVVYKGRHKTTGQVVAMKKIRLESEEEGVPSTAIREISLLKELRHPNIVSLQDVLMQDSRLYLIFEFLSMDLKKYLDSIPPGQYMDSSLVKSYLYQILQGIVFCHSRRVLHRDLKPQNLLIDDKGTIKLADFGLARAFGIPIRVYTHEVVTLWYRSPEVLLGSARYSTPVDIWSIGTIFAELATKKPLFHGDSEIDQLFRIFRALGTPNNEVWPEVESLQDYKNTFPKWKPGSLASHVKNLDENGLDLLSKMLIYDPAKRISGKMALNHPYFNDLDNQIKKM
CDK1/Cyclin B1, sequence (P14635 whole entry partner): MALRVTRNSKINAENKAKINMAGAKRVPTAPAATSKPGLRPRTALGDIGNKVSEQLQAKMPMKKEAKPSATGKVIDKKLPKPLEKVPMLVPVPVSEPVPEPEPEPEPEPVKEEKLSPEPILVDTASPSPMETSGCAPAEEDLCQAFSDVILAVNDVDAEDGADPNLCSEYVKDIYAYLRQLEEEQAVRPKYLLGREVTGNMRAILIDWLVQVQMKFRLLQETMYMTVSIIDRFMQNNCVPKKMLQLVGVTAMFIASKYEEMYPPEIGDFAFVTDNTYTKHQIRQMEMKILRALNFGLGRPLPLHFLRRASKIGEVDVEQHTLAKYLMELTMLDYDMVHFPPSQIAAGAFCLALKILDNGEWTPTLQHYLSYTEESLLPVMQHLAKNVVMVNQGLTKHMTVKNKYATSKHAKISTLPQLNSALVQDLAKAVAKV

| SMILES | IC50 [1] | IC50 [2] |
| --- | --- | --- |
| O=C(NCC1CC1)O[C@H]1CC[C@@H](c2cc(Nc3cc4c(cc3F)S(=O)(=O)NC4)n[nH]2)C1 (relative stereo) [Example 420, cis-3-(3-((6-fluoro-1,1-dioxido-2,3-dihydrobenzo[d]isothiazol-5-yl)amino)-1H-pyrazol-5-yl)cyclopentyl(cyclopropylmethyl)carbamate] | 5510 nM | 24 nM |
| [2H]C([2H])([2H])N1c2ccc(Nc3cc([C@@H]4CC[C@H](OC(=O)NC(C)(C)C)C4)[nH]n3)cc2CS1(=O)=O (relative stereo) [Example 454, cis-3-(3-((1-(methyl-d3)-2,2-dioxido-1,3-dihydrobenzo[c]isothiazol-5-yl)amino)-1H-pyrazol-5-yl)cyclopentyl tert-butylcarbamate] | 114 nM | 0.5 nM |
| CN(C(=O)O[C@H]1CC[C@@H](c2cc(Nc3ccc4c(c3F)CS(=O)(=O)N4)n[nH]2)C1)C1CCOC1 (relative stereo) [Example 441, cis-3-(3-((4-fluoro-2,2-dioxido-1,3-dihydrobenzo[c]isothiazol-5-yl)amino)-1H-pyrazol-5-yl)cyclopentyl methyl(tetrahydrofuran-3-yl)carbamate] | 5060 nM | 47 nM |
| CC1(C)CCCN1C(=O)O[C@H]1CC[C@@H](c2cc(Nc3cc4c(cc3F)S(=O)(=O)NC4)n[nH]2)C1 (relative stereo) [Example 447, cis-3-(3-((6-fluoro-1,1-dioxido-2,3-dihydrobenzo[d]isothiazol-5-yl)amino)-1H-pyrazol-5-yl)cyclopentyl 2,2-dimethylpyrrolidine-1-carboxylate] | 1280 nM | 4.8 nM |
| O=C(NCCC(F)(F)F)O[C@H]1CC[C@@H](c2cc(Nc3ccc4c(c3F)CS(=O)(=O)N4)n[nH]2)C1 (relative stereo) [Example 438, cis-3-(3-((4-fluoro-2,2-dioxido-1,3-dihydrobenzo[c]isothiazol-5-yl)amino)-1H-pyrazol-5-yl)cyclopentyl(3,3,3-trifluoropropyl)carbamate] | 583 nM | 4.7 nM |
| CCNC(=O)O[C@H]1CC[C@@H](c2cc(Nc3cc4c(cc3F)S(=O)(=O)NC4)n[nH]2)C1 (relative stereo) [Example 421, cis-3-(3-((6-fluoro-1,1-dioxido-2,3-dihydrobenzo[d]isothiazol-5-yl)amino)-1H-pyrazol-5-yl)cyclopentyl ethylcarbamate] | > 10000 nM | 135 nM |
| CCC(=O)CNC(=O)O[C@H]1CC[C@@H](c2cc(Nc3ccc4c(c3F)CS(=O)(=O)N4)n[nH]2)C1 (relative stereo) [Example 432, cis-3-(3-((4-fluoro-2,2-dioxido-1,3-dihydrobenzo[c]isothiazol-5-yl)amino)-1H-pyrazol-5-yl)cyclopentyl(2-oxobutyl)carbamate] | 1320 nM | 23 nM |
| O=C(NC1CCOC1)O[C@H]1CC[C@@H](c2cc(Nc3ccc4c(c3F)CS(=O)(=O)N4)n[nH]2)C1 (relative stereo) [Example 431, cis-3-(3-((4-fluoro-2,2-dioxido-1,3-dihydrobenzo[c]isothiazol-5-yl)amino)-1H-pyrazol-5-yl)cyclopentyl(tetrahydrofuran-3-yl)carbamate] | > 10000 nM | 42 nM |
| CC1(NC(=O)O[C@H]2CC[C@@H](c3cc(Nc4cc5c(cc4F)S(=O)(=O)NC5)n[nH]3)C2)CCOC1 (relative stereo) [Example 450, cis-3-(3-((6-fluoro-1,1-dioxido-2,3-dihydrobenzo[d]isothiazol-5-yl)amino)-1H-pyrazol-5-yl)cyclopentyl(3-methyltetrahydrofuran-3-yl)carbamate] | 6180 nM | 7.6 nM |
| O=C(NC1CCOC1)O[C@H]1CC[C@@H](c2cc(Nc3ccc4c(c3F)CS(=O)(=O)N4C3CC3)n[nH]2)C1 (relative stereo) [Example 429, cis-3-(3-((1-cyclopropyl-4-fluoro-2,2-dioxido-1,3-dihydrobenzo[c]isothiazol-5-yl)amino)-1H-pyrazol-5-yl)cyclopentyl(tetrahydrofuran-3-yl)carbamate] | > 10000 nM | 133 nM |

The remaining lines, values ahead:

| IC50 [1] | IC50 [2] | SMILES |
| --- | --- | --- |
| 487 nM | 0.5 nM | CN1c2ccc(Nc3cc([C@@H]4CC[C@H](OC(=O)NC56CC(C5)C6)C4)[nH]n3)c(F)c2CS1(=O)=O (relative stereo) [Example 452, cis-3-(3-((4-fluoro-1-methyl-2,2-dioxido-1,3-dihydrobenzo[c]isothiazol-5-yl)amino)-1H-pyrazol-5-yl)cyclopentyl bicyclo[1.1.1]pentan-1-ylcarbamate] |
| 140 nM | 0.4 nM | CC(C)(C)NC(=O)O[C@H]1CC[C@@H](c2cc(Nc3ccc4c(c3F)CCS(=O)(=O)N4)n[nH]2)C1 [Example 463, (1S,3R)-3-(3-((5-fluoro-2,2-dioxido-3,4-dihydro-1H-benzo[c][1,2]thiazin-6-yl)amino)-1H-pyrazol-5-yl)cyclopentyl tert-butylcarbamate] |
| 325 nM | 0.8 nM | CC(C)(C)NC(=O)O[C@@H]1CC[C@H](c2cc(Nc3ccc4c(c3F)CCS(=O)(=O)N4)n[nH]2)C1 [Example 464, (1R,3S)-3-(3-((5-fluoro-2,2-dioxido-3,4-dihydro-1H-benzo[c][1,2]thiazin-6-yl)amino)-1H-pyrazol-5-yl)cyclopentyl tert-butylcarbamate] |
| 582 nM | 1.6 nM | CC(C)(CO)NC(=O)O[C@H]1CC[C@@H](c2cc(Nc3ccc4c(c3F)CS(=O)(=O)N4)n[nH]2)C1 (relative stereo) [Example 443, cis-3-(3-((4-fluoro-2,2-dioxido-1,3-dihydrobenzo[c]isothiazol-5-yl)amino)-1H-pyrazol-5-yl)cyclopentyl(1-hydroxy-2-methylpropan-2-yl)carbamate] |
| 593 nM | 3.1 nM | CCCNC(=O)O[C@H]1CC[C@@H](c2cc(Nc3ccc4c(c3F)CCS(=O)(=O)N4)n[nH]2)C1 (relative stereo) [Example 460, cis-3-(3-((5-fluoro-2,2-dioxido-3,4-dihydro-1H-benzo[c][1,2]thiazin-6-yl)amino)-1H-pyrazol-5-yl)cyclopentyl propylcarbamate] |
| 3500 nM | 12 nM | CC(C)NC(=O)O[C@H]1CC[C@@H](c2cc(Nc3ccc4c(c3F)N(C)S(=O)(=O)N4C)n[nH]2)C1 (relative stereo) [Example 458, cis-3-(3-((4-fluoro-1,3-dimethyl-2,2-dioxido-1,3-dihydrobenzo[c][1,2,5]thiadiazol-5-yl)amino)-1H-pyrazol-5-yl)cyclopentyl isopropylcarbamate] |
| 747 nM | 1.7 nM | CC[C@H](C)NC(=O)O[C@H]1CC[C@@H](c2cc(Nc3ccc4c(c3F)CS(=O)(=O)N4CC(C)(C)O)n[nH]2)C1 (relative stereo) [Example 434, cis-3-(3-((4-fluoro-1-(2-hydroxy-2-methylpropyl)-2,2-dioxido-1,3-dihydrobenzo[c]isothiazol-5-yl)amino)-1H-pyrazol-5-yl)cyclopentyl((S)-sec-butyl)carbamate] |
| 349 nM | 0.7 nM | CC1(NC(=O)O[C@H]2CC[C@@H](c3cc(Nc4ccc5c(c4F)CCS(=O)(=O)N5)n[nH]3)C2)CC1 (relative stereo) [Example 462, cis-3-(3-((5-fluoro-2,2-dioxido-3,4-dihydro-1H-benzo[c][1,2]thiazin-6-yl)amino)-1H-pyrazol-5-yl)cyclopentyl(1-methylcyclopropyl)carbamate] |
| 784 nM | 2.2 nM | CC(C)NC(=O)O[C@H]1CC[C@@H](c2cc(Nc3ccc4c(c3F)CCS(=O)(=O)N4)n[nH]2)C1 (single isomer, unassigned) [Example 430b] |
| 1450 nM | 18 nM | CCCNC(=O)O[C@H]1CC[C@@H](c2cc(Nc3ccc4c(c3F)CS(=O)(=O)N4CC(C)(C)O)n[nH]2)C1 [Example 433b] |
| 271 nM | 0.3 nM | CC[C@H](C)NC(=O)O[C@H]1CC[C@@H](c2cc(Nc3ccc4c(c3F)CCS(=O)(=O)N4)n[nH]2)C1 (relative stereo) [Example 461, cis-3-(3-((5-fluoro-2,2-dioxido-3,4-dihydro-1H-benzo[c][1,2]thiazin-6-yl)amino)-1H-pyrazol-5-yl)cyclopentyl((S)-sec-butyl)carbamate] |
| > 10000 nM | 530 nM | CC(C)NC(=O)O[C@H]1CC[C@@H](c2cc(Nc3ccc4c(c3F)NS(=O)(=O)N4C)n[nH]2)C1 (relative stereo) [Example 467, cis-3-(3-((4-fluoro-1-methyl-2,2-dioxido-1,3-dihydrobenzo[c][1,2,5]thiadiazol-5-yl)amino)-1H-pyrazol-5-yl)cyclopentyl isopropylcarbamate] |
| 1770 nM | 3.6 nM | CC(C)NC(=O)O[C@@H]1CC[C@H](c2cc(Nc3ccc4c(c3F)CCS(=O)(=O)N4)n[nH]2)C1 (single isomer, unassigned) [Example 430a] |
